Assay results from patent publication US20250188032A1, “NITROGEN-CONTAINING HETEROCYCLIC COMPOUNDS AND USES THEREOF” (BNH RESEARCH CO., LTD., priority 2022, published 2025).

What was measured:
Test in all cases: HDAC catalytic activity, fluorogenic substrate
Type in all cases: biochemical
Settings in all cases: 10-dose, 3-fold serial dilution starting at 100 μM, duplicates
HDAC1 = HDAC1 (Homo sapiens, UniProt Q13547)
Description: (§1) The compound (racemate) was resuspended in 100 mM DMSO and tested in a 10-dose IC50 with 3-fold serial dilution starting at 100 μM against HDACs 1-9, and 11. As reference compounds, Trichostatin A (TSA) and TMP269 were tested in a 10-dose IC50 with 3-fold serial dilution starting at 10 μM or 1 μM.
(§2) 10 μM Fluorogenic peptide from p53 residues 379-382 (RHKK(Ac)AMC) was used for the substrate for HDAC 1, 2, 3, and 6, 50 μM Fluorogenic HDAC Class2a Substrate (Trifluoroacetyl Lysine) was used for the substrate for HDAC 4, 5, 7, 9, and 11, 100 μM Fluorogenic peptide from p53 residues 379-382 (RHK(Ac)K(Ac)AMC) was used for the substrate for HDAC8.
(§3) IC50 values were calculated using the GraphPad Prism 4 program based on a sigmoidal dose-response equation and the blank (DMSO) value concentration was entered as 1.00E-12 M for curve fitting.

HDAC11 = biological target: T1, HDAC11 (Homo sapiens, UniProt Q96DB2)
T1 sequence (Q96DB2 1-347): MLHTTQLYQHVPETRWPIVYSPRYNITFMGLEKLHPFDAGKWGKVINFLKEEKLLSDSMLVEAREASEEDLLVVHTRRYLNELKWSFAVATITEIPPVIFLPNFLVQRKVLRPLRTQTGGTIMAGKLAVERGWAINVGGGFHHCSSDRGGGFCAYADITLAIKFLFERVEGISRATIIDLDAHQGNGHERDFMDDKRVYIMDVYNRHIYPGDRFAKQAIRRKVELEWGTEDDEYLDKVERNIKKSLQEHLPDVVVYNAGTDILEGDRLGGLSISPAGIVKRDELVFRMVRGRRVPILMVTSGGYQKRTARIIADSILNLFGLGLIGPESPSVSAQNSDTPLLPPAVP
Description: as §1, §2, §3

HDAC2 = HDAC2 (Homo sapiens, UniProt Q92769)
Description: as §1, §2, §3

HDAC3 = HDAC3 (Homo sapiens, UniProt O15379)
Description: as §1, §2, §3

HDAC4 = HDAC4 (Homo sapiens, UniProt P56524)
Description: as §1, §2, §3

HDAC5 = HDAC5 (Homo sapiens, UniProt Q9UQL6)
Description: as §1, §2, §3

HDAC6 = biological target: T2, HDAC6 (Homo sapiens, UniProt Q9UBN7)
T2 sequence (Q9UBN7 1-1215): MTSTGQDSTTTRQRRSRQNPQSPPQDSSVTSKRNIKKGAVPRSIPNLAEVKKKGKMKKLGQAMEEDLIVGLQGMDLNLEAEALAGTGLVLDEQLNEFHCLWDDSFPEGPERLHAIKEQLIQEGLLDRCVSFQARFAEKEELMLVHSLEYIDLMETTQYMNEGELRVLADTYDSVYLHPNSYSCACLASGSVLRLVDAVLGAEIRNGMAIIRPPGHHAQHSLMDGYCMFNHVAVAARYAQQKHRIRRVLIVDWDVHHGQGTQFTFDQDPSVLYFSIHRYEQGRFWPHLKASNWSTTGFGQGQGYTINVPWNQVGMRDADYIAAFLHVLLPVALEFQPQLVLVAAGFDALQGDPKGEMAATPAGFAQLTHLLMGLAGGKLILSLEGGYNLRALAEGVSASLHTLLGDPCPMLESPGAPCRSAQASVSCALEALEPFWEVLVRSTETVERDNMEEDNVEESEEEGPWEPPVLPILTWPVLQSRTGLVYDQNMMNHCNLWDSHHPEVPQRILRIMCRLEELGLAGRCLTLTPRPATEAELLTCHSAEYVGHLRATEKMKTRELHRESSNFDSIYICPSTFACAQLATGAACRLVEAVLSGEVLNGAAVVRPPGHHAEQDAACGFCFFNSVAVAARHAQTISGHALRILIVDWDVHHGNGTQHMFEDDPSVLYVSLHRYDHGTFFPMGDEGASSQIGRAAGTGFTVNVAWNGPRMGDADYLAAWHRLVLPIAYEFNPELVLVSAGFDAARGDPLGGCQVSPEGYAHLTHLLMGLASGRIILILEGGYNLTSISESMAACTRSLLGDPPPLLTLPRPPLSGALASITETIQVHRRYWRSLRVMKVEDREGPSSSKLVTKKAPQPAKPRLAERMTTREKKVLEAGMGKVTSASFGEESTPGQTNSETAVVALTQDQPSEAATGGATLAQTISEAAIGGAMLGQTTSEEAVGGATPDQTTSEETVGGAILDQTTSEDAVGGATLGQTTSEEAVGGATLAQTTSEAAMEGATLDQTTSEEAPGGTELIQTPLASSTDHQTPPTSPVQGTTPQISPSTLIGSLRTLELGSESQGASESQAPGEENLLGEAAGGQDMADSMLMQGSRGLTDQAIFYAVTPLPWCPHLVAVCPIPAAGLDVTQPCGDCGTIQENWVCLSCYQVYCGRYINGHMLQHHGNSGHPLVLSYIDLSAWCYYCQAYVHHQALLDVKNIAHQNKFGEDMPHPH
Description: as §1, §2, §3

HDAC8 = biological target: T3, HDAC8 (Homo sapiens, UniProt Q9BY41)
T3 sequence (Q9BY41 1-377): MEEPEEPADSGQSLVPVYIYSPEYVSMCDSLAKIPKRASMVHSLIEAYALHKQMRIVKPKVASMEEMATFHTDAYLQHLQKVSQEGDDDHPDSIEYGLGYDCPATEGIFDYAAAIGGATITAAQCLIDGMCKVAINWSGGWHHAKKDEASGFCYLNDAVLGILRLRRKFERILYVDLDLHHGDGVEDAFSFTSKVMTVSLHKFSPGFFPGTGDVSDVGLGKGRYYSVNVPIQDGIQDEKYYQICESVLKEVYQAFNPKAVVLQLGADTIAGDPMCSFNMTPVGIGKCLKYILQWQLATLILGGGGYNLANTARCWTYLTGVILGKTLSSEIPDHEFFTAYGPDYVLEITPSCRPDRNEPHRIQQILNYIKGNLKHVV
Description: as §1, §2, §3

HDAC9 = HDAC9 (Homo sapiens, UniProt Q9UKV0)
Description: as §1, §2, §3

Chain of HDAC3 (O15379 whole entry): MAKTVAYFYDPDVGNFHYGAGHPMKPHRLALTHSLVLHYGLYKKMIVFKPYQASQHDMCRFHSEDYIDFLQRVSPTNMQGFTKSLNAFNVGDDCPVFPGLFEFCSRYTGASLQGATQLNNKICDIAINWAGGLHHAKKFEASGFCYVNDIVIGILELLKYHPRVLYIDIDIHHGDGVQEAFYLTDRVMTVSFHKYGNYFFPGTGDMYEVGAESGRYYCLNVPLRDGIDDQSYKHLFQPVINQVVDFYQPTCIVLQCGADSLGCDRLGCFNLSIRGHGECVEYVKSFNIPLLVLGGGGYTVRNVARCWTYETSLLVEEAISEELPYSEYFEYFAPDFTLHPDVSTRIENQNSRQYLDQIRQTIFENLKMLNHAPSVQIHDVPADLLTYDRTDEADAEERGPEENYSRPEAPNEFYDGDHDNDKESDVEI
Chain of HDAC3 (Q9Y618 395-489 partner limits assumed): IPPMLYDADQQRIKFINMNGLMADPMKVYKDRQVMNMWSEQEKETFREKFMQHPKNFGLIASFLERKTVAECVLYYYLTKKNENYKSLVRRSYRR
Chain of HDAC4 (P56524 whole entry, species assumed): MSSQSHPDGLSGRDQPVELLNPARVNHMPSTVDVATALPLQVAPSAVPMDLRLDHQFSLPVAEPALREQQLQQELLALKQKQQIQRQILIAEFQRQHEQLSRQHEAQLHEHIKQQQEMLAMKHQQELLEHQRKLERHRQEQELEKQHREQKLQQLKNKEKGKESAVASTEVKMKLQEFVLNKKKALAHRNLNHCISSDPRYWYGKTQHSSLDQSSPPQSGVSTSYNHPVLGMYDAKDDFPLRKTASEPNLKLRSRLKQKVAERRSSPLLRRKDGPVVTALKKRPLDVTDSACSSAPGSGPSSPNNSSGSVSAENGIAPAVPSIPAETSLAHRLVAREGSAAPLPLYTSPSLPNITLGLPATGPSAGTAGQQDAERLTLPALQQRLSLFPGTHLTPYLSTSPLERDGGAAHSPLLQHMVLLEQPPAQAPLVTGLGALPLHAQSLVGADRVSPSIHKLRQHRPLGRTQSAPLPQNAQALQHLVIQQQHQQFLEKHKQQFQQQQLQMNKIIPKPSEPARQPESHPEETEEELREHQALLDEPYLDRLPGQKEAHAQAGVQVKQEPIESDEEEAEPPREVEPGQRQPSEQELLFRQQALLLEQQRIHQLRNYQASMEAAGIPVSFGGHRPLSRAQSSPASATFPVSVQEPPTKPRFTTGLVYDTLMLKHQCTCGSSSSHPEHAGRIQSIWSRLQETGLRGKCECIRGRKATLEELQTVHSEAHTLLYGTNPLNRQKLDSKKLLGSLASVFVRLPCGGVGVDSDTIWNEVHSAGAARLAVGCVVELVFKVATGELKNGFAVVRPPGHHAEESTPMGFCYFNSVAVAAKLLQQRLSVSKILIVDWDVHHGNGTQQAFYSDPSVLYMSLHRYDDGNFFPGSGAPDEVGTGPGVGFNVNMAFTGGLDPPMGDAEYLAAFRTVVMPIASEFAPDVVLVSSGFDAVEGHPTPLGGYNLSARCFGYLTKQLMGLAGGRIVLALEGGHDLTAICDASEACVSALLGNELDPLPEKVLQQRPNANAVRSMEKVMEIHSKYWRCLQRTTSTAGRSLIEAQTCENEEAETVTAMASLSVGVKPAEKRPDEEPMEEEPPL
Chain of HDAC9 (Q9UKV0 whole entry): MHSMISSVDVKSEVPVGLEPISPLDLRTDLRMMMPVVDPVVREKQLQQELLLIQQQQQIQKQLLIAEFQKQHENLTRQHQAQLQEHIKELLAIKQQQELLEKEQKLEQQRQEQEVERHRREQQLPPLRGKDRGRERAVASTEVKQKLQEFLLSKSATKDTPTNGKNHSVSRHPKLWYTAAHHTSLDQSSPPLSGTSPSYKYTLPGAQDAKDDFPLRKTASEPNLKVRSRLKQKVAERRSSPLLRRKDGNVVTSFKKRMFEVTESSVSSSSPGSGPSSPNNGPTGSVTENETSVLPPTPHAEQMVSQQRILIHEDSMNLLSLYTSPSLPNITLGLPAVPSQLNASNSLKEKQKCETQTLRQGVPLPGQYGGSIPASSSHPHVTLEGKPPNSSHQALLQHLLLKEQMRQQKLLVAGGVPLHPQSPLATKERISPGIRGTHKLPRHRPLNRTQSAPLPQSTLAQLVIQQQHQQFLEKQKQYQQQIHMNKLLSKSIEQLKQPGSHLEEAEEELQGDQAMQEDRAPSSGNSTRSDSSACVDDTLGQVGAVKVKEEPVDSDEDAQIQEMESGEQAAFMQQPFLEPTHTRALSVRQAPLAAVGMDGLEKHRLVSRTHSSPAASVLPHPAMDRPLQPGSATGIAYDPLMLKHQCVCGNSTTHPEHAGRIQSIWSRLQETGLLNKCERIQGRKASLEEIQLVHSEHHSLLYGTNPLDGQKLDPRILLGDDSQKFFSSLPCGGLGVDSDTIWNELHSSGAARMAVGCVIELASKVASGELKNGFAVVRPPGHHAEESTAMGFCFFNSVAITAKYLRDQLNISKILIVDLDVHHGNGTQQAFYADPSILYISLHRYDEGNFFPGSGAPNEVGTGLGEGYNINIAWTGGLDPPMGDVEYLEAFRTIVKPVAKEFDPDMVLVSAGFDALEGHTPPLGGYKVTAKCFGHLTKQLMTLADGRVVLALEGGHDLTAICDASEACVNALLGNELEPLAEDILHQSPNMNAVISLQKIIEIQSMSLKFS
Chain of HDAC5 (Q9UQL6 whole entry, species assumed): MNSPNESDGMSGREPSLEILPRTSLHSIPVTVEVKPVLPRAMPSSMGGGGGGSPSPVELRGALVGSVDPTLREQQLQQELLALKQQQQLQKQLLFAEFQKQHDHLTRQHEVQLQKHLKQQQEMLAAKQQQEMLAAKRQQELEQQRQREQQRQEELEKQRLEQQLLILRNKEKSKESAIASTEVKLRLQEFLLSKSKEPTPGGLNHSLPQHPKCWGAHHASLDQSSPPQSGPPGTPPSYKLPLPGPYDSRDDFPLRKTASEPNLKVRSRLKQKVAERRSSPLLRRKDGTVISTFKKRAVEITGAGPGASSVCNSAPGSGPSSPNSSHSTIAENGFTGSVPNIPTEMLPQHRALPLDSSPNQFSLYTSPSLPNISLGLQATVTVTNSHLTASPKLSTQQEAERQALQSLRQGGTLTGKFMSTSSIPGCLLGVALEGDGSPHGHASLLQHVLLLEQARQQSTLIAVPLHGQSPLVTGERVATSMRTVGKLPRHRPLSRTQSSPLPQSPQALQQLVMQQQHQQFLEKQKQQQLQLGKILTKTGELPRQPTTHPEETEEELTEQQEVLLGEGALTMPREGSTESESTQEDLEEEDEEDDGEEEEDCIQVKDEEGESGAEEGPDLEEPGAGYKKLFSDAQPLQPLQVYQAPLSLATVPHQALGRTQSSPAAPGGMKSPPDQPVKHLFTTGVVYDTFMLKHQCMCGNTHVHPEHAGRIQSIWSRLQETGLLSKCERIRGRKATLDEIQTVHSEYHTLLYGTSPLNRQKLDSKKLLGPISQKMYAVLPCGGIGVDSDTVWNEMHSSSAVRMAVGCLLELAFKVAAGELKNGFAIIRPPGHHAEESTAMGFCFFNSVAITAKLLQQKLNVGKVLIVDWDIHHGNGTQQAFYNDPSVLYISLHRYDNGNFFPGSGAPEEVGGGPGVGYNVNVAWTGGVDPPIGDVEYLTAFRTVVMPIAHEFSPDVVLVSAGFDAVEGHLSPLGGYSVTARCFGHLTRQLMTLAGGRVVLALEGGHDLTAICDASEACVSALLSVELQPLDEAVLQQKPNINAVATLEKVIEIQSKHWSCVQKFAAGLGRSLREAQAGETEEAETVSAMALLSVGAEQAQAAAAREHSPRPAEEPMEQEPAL
Chain of HDAC1 (Q13547 whole entry): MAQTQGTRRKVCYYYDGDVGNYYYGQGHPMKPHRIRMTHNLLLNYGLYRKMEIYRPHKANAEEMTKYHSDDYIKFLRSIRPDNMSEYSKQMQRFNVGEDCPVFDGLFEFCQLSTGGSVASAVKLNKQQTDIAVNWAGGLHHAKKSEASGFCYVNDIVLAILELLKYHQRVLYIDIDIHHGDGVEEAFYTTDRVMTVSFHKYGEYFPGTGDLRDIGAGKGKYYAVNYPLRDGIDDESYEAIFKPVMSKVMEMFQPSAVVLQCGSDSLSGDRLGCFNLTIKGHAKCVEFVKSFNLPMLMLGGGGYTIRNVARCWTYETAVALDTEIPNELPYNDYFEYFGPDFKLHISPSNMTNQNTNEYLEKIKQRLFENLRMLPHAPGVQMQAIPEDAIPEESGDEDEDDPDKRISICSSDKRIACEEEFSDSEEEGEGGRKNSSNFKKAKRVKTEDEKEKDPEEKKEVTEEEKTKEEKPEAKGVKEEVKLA
Chain of HDAC2 (Q92769 whole entry): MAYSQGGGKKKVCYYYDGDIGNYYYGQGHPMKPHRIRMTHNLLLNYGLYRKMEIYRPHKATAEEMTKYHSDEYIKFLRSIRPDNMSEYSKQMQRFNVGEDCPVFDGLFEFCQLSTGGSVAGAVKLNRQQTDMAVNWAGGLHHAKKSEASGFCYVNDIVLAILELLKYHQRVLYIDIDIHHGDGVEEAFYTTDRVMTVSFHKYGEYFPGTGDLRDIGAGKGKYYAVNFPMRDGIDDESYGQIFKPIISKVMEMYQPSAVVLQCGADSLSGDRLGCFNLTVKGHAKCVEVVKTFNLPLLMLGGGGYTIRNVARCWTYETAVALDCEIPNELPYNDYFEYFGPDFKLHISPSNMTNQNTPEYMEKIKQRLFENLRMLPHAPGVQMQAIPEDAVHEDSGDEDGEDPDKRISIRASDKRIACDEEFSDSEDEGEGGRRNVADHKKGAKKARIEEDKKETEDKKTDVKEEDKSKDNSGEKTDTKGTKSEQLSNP

CC1CCC(C(=O)O)CN1C(=O)Cc1ccc(F)cc1Cl (racemic) [BnH12001, 1-(2-(2-chloro-4-fluorophenyl)acetyl)-6-methylpiperidine-3-carboxylic acid]
did not show any inhibitory effect: Inhibitory effect on HDAC1 catalytic activity (HDAC1) | Inhibitory effect on HDAC11 catalytic activity (HDAC11) | Inhibitory effect on HDAC2 catalytic activity (HDAC2) | Inhibitory effect on HDAC3 catalytic activity (HDAC3) | Inhibitory effect on HDAC4 catalytic activity (HDAC4) | Inhibitory effect on HDAC5 catalytic activity (HDAC5) | Inhibitory effect on HDAC6 catalytic activity (HDAC6) | Inhibitory effect on HDAC8 catalytic activity (HDAC8) | Inhibitory effect on HDAC9 catalytic activity (HDAC9)
